Source: patent US20060024392A1, “Compositions and methods for enhancing the effectiveness of a chemotherapeutic agent” (priority 2004, published 2006)

How the values were obtained:
[1] = test system: NCM460 normal colon cells; experiment: Sulforhodamine B (SRB) cell growth assay in NCM460 normal colon cells; assay type: cell-based, human
Protocol: HT-29, a cell line derived from colorectal adenocarcinoma (ATCC, HTB 38), grows in McCoy's 5A medium (Biowhittaker, Inc. Walkersville, Md.). NCM460, a cell line derived from a normal human colon (InCell Corp. San Antonio, Tex.), grows in M3 Base media (InCell Corp. San Antonio, Tex.).
Both cell lines are kept at 37° C. and 5% CO2 atmosphere. Both media are supplemented with 10% fetal bovine serum (FBS, Biowhittaker, Inc. Walkersville, Md.).
Cells are fixed in situ by the gentle addition of 50 μl of cold 50% (w/v) TCA (final concentration, 10% TCA) and incubated for 60 minutes at 4° C. The supernatant is discarded, and the plates are washed five times with tap water and air dried. Sulforhodamine B (SRB) solution (100 μl) at 0.4% (w/v) in 1% acetic acid is added to each well, and plates are incubated for 10 minutes at room temperature. After staining, unbound dye is removed by washing five times with 1% acetic acid and the plates are air dried. Bound stain is subsequently solubilized with 100 μl 10 mM trizma base for 5 minutes, and the absorbance at wavelength of 490 nm was spectrophotometrically measured using a microplate reader Elx800 (Bio-Tek instruments, Inc.).
Cells were seeded in 96-well cluster tissue culture plates (Costar), containing 100 μl complete growth medium per well at densities of 5,000 cells per well. Incubated at 37° C. in a humidified tissue culture incubator. After 24 Hour, 100 μl complete medium containing 5 half-log dilutions of the 5FU from 2*10^−4 to 2*10^−6 M was added into each well (final concentrations are from 10^−4 to 10^−6 M). Six replicates were used for each concentration. Media containing 0.125% DMSO was used as control. After 48 hours of incubation with 5FU in medium, cell proliferation was assessed using the SRB assay.
Percentage growth (Growth%) is calculated as: [(Ti−Tz)/(C−Tz)]×100 [absorbance measurements at time zero (Tz), control growth (C), and test growth in the presence of drug at the different concentration levels (Ti)].
Growth inhibition of 50% (GI50) is calculated from [(Ti−Tz)/(C−Tz)]×100=50, which is the drug concentration resulting in a 50% reduction in the net protein increase (as measured by SRB staining) in control cells during the drug incubation.
Similar method as Experiment 1 was used, except cells were exposed to 5FU at concentration ranging from 10^−4.5 to 10^−7 M. Media containing 0.01% DMSO was used as control. Lower concentrations were used since it was observed that 0.1% DMSO inhibited the growth of NCM460 cells. The experiment was repeated 5 times.
The protocol was the same as Experiment 3, except cells were exposed to 5FU at concentration ranging from 10^−5 to 10^−7 M with chokeberry ARE at concentration of 5, 15.6, 50 μg monomeric anthocyanin/ml growth media. […] Differences in response are most evident at the 5 FU concentration of 10^−6 M and ARE concentration of 15.6 μg monomeric anthocyanin/ml. In normal cells, there is no difference in the percent growth by 5FU with or without ARE, whereas in colon cancer cells, growth with 5FU alone was 80% of control, and further reduced to 40% with ARE and 5 FU.

[2] = test system: colon cancer; details: clinical treatment of colon cancer; cited from earlier work

**Q.** What does the source list for `O=c1[nH]cc(F)c(=O)[nH]1` [5FU, 5-fluorouracil]?
**A.** Growth % ([1]; 5FU 1.0E−4.5 M, experiment 1): 45.13%; OD ([1]; 5FU 1.0E−4.5 M, experiment 1): 0.264; Growth % ([1]; 5FU 1.0E−4.5 M, experiment 2): 33.85%; OD ([1]; 5FU 1.0E−4.5 M, experiment 2): 0.242; Growth % ([1]; 5FU 1.0E−4.5 M, experiment 3): 36.70%; OD ([1]; 5FU 1.0E−4.5 M, experiment 3): 0.256; Growth % ([1]; 5FU 1.0E−5 M, experiment 1): 53.85%; OD ([1]; 5FU 1.0E−5 M, experiment 1): 0.281; Growth % ([1]; 5FU 1.0E−5 M, experiment 2): 48.21%; OD ([1]; 5FU 1.0E−5 M, experiment 2): 0.27; Growth % ([1]; 5FU 1.0E−5 M, experiment 3): 45.41%; OD ([1]; 5FU 1.0E−5 M, experiment 3): 0.275; Growth % ([1]; 5FU 1.0E−5 M, experiment 4): 57.58%; OD ([1]; 5FU 1.0E−5 M, experiment 4): 0.285; Growth % ([1]; 5FU 1.0E−5 M, experiment 5): 51.41%; OD ([1]; 5FU 1.0E−5 M, experiment 5): 0.279; Growth % ([1]; 5FU 1.0E−5.5 M, experiment 1): 55.38%; OD ([1]; 5FU 1.0E−5.5 M, experiment 1): 0.284; Growth % ([1]; 5FU 1.0E−5.5 M, experiment 2): 67.69%; OD ([1]; 5FU 1.0E−5.5 M, experiment 2): 0.308; Growth % ([1]; 5FU 1.0E−5.5 M, experiment 3): 60.55%; OD ([1]; 5FU 1.0E−5.5 M, experiment 3): 0.308; Growth % ([1]; 5FU 1.0E−5.5 M, experiment 4): 75.38%; OD ([1]; 5FU 1.0E−5.5 M, experiment 4): 0.332; Growth % ([1]; 5FU 1.0E−5.5 M, experiment 5): 72.54%; OD ([1]; 5FU 1.0E−5.5 M, experiment 5): 0.339; Growth % ([1]; 5FU 1.0E−6 M, experiment 1): 56.41%; OD ([1]; 5FU 1.0E−6 M, experiment 1): 0.286; Growth % ([1]; 5FU 1.0E−6 M, experiment 2): 63.08%; OD ([1]; 5FU 1.0E−6 M, experiment 2): 0.299; Growth % ([1]; 5FU 1.0E−6 M, experiment 3): 66.06%; OD ([1]; 5FU 1.0E−6 M, experiment 3): 0.32; Growth % ([1]; 5FU 1.0E−6 M, experiment 4): 93.56%; OD ([1]; 5FU 1.0E−6 M, experiment 4): 0.38; Growth % ([1]; 5FU 1.0E−6 M, experiment 5): 87.32%; OD ([1]; 5FU 1.0E−6 M, experiment 5): 0.381; Growth % ([1]; 5FU 1.0E−6.5 M, experiment 1): 59.49%; OD ([1]; 5FU 1.0E−6.5 M, experiment 1): 0.292; Growth % ([1]; 5FU 1.0E−6.5 M, experiment 2): 83.59%; OD ([1]; 5FU 1.0E−6.5 M, experiment 2): 0.339; Growth % ([1]; 5FU 1.0E−6.5 M, experiment 3): 78.44%; OD ([1]; 5FU 1.0E−6.5 M, experiment 3): 0.347; Growth % ([1]; 5FU 1.0E−6.5 M, experiment 4): 97.35%; OD ([1]; 5FU 1.0E−6.5 M, experiment 4): 0.39; Growth % ([1]; 5FU 1.0E−6.5 M, experiment 5): 92.61%; OD ([1]; 5FU 1.0E−6.5 M, experiment 5): 0.396; Growth % ([1]; 5FU 1.0E−7 M, experiment 4): 99.62%; OD ([1]; 5FU 1.0E−7 M, experiment 4): 0.396; Growth % ([1]; 5FU 1.0E−7 M, experiment 5): 89.79%; OD ([1]; 5FU 1.0E−7 M, experiment 5): 0.388; response rate [2]: 20%
